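Where inhibition never reached the appropriate level, the endpoint shown equals the highest concentration tested. Otherwise, values were interpolated linearly from a five-concentration, 48-hour dose response in 96-well plates. At the GI50, growth is halved. TGI denotes the concentration required for complete inhibition of growth.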
Columns and labels:
Test in all cases: NCI tumour cell line growth inhibition, 48 h
COLO 205 colon = tested on: COLO 205 colon
SK-MEL-28 melanoma = tested on: SK-MEL-28 melanoma
TK-10 renal = tested on: TK-10 renal
EKVX NSCLC = tested on: EKVX NSCLC
HT29 colon = tested on: HT29 colon
MALME-3M melanoma = tested on: MALME-3M melanoma
RPMI-8226 leukemia = tested on: RPMI-8226 leukemia
DU-145 prostate = tested on: DU-145 prostate
SNB-19 CNS = tested on: SNB-19 CNS
HOP-92 NSCLC = tested on: HOP-92 NSCLC
MDA-MB-468 breast = tested on: MDA-MB-468 breast
UO-31 renal = tested on: UO-31 renal
SK-MEL-2 melanoma = tested on: SK-MEL-2 melanoma
MOLT-4 leukemia = tested on: MOLT-4 leukemia
KM12 colon = tested on: KM12 colon
A498 renal = tested on: A498 renal
CCRF-CEM leukemia = tested on: CCRF-CEM leukemia
UACC-62 melanoma = tested on: UACC-62 melanoma
OVCAR-5 ovarian = tested on: OVCAR-5 ovarian
ACHN renal = tested on: ACHN renal
HCT-15 colon = tested on: HCT-15 colon
HS 578T breast = tested on: HS 578T breast
HL-60(TB) leukemia = tested on: HL-60(TB) leukemia
NCI/ADR-RES ovarian = tested on: NCI/ADR-RES ovarian
NCI-H23 lung = tested on: NCI-H23 lung
NCI-H226 lung = tested on: NCI-H226 lung
IGROV1 ovarian = tested on: IGROV1 ovarian
RXF 393 renal = tested on: RXF 393 renal
A549 NSCLC = tested on: A549 NSCLC
BT-549 breast = tested on: BT-549 breast
OVCAR-3 ovarian = tested on: OVCAR-3 ovarian
SF-268 CNS = tested on: SF-268 CNS
SF-295 CNS = tested on: SF-295 CNS
MDA-MB-231 breast = tested on: MDA-MB-231 breast
NCI-H460 lung = tested on: NCI-H460 lung
SK-OV-3 ovarian = tested on: SK-OV-3 ovarian
OVCAR-4 ovarian = tested on: OVCAR-4 ovarian
SR leukemia = tested on: SR leukemia
M14 melanoma = tested on: M14 melanoma
CAKI-1 renal = tested on: CAKI-1 renal
T-47D breast = tested on: T-47D breast
LOX IMVI melanoma = tested on: LOX IMVI melanoma
UACC-257 melanoma = tested on: UACC-257 melanoma
MDA-MB-435 = tested on: MDA-MB-435
SK-MEL-5 melanoma = tested on: SK-MEL-5 melanoma
PC-3 prostate = tested on: PC-3 prostate
MCF7 breast = tested on: MCF7 breast
SW-620 colon = tested on: SW-620 colon
SN12C renal = tested on: SN12C renal
NCI-H522 lung = tested on: NCI-H522 lung
K-562 leukemia = tested on: K-562 leukemia
U251 CNS = tested on: U251 CNS
HCC-2998 colon = tested on: HCC-2998 colon
HCT-116 colon = tested on: HCT-116 colon
786-0 renal = tested on: 786-0 renal
SNB-75 CNS = tested on: SNB-75 CNS
SF-539 CNS = tested on: SF-539 CNS
HOP-62 NSCLC = tested on: HOP-62 NSCLC
OVCAR-8 ovarian = tested on: OVCAR-8 ovarian

SMILES: CCN1C(=O)N(CC)C2NNC(Sc3c(C(=O)O)c4ccccc4n(CC(C)C)c3=O)=NC21 (stereo not drawn)
- GI50 (COLO 205 colon): 2.53 µM
- TGI (COLO 205 colon): 6.95 µM
- GI50 (SK-MEL-28 melanoma): 6.5 µM
- TGI (SK-MEL-28 melanoma): > 100 µM
- GI50 (TK-10 renal): 18.4 µM
- TGI (TK-10 renal): > 100 µM
- GI50 (EKVX NSCLC): 3.11 µM
- TGI (EKVX NSCLC): > 100 µM
- GI50 (HT29 colon): 2.83 µM
- TGI (HT29 colon): 12.5 µM
- GI50 (MALME-3M melanoma): 5.23 µM
- TGI (MALME-3M melanoma): 47.7 µM
- GI50 (RPMI-8226 leukemia): 2.75 µM
- TGI (RPMI-8226 leukemia): > 100 µM
- GI50 (DU-145 prostate): 4.49 µM
- TGI (DU-145 prostate): > 100 µM
- GI50 (SNB-19 CNS): 3.78 µM
- TGI (SNB-19 CNS): 65 µM
- GI50 (HOP-92 NSCLC): 14.4 µM
- TGI (HOP-92 NSCLC): 64.1 µM
- GI50 (MDA-MB-468 breast): 0.442 µM
- TGI (MDA-MB-468 breast): 3.91 µM
- GI50 (UO-31 renal): 4.11 µM
- TGI (UO-31 renal): > 100 µM
- GI50 (SK-MEL-2 melanoma): 4.21 µM
- TGI (SK-MEL-2 melanoma): > 100 µM
- GI50 (MOLT-4 leukemia): 3.66 µM
- TGI (MOLT-4 leukemia): > 100 µM
- GI50 (KM12 colon): 2.93 µM
- TGI (KM12 colon): > 100 µM
- GI50 (A498 renal): > 100 µM
- TGI (A498 renal): > 100 µM
- GI50 (CCRF-CEM leukemia): 3.54 µM
- TGI (CCRF-CEM leukemia): > 100 µM
- GI50 (UACC-62 melanoma): 2.68 µM
- TGI (UACC-62 melanoma): 33.5 µM
- GI50 (OVCAR-5 ovarian): 4.19 µM
- TGI (OVCAR-5 ovarian): 67.1 µM
- GI50 (ACHN renal): 4.73 µM
- TGI (ACHN renal): 46.2 µM
- GI50 (HCT-15 colon): 1.89 µM
- TGI (HCT-15 colon): 18.8 µM
- GI50 (HS 578T breast): 2.94 µM
- TGI (HS 578T breast): 58.8 µM
- GI50 (HL-60(TB) leukemia): 2.37 µM
- TGI (HL-60(TB) leukemia): 12.9 µM
- GI50 (NCI/ADR-RES ovarian): 1.99 µM
- TGI (NCI/ADR-RES ovarian): 4.89 µM
- GI50 (NCI-H23 lung): 3.67 µM
- TGI (NCI-H23 lung): 21.4 µM
- GI50 (NCI-H226 lung): 3.92 µM
- TGI (NCI-H226 lung): 21.1 µM
- GI50 (IGROV1 ovarian): 2.54 µM
- TGI (IGROV1 ovarian): 19.3 µM
- GI50 (RXF 393 renal): 3.17 µM
- TGI (RXF 393 renal): 17.1 µM
- GI50 (A549 NSCLC): 4.6 µM
- TGI (A549 NSCLC): > 100 µM
- GI50 (BT-549 breast): 35.7 µM
- TGI (BT-549 breast): > 100 µM
- GI50 (OVCAR-3 ovarian): 3.19 µM
- TGI (OVCAR-3 ovarian): 22.3 µM
- GI50 (SF-268 CNS): 6.46 µM
- TGI (SF-268 CNS): > 100 µM
- GI50 (SF-295 CNS): 3.01 µM
- TGI (SF-295 CNS): 16.3 µM
- GI50 (MDA-MB-231 breast): 2.51 µM
- TGI (MDA-MB-231 breast): 21.9 µM
- GI50 (NCI-H460 lung): 3.08 µM
- TGI (NCI-H460 lung): 12.2 µM
- GI50 (SK-OV-3 ovarian): 6.05 µM
- TGI (SK-OV-3 ovarian): > 100 µM
- GI50 (OVCAR-4 ovarian): 15 µM
- TGI (OVCAR-4 ovarian): > 100 µM
- GI50 (SR leukemia): 13.2 µM
- TGI (SR leukemia): > 100 µM
- GI50 (M14 melanoma): 4 µM
- TGI (M14 melanoma): > 100 µM
- GI50 (CAKI-1 renal): 3.1 µM
- TGI (CAKI-1 renal): 23.2 µM
- GI50 (T-47D breast): > 100 µM
- TGI (T-47D breast): > 100 µM
- GI50 (LOX IMVI melanoma): 4.13 µM
- TGI (LOX IMVI melanoma): 20.6 µM
- GI50 (UACC-257 melanoma): 14.7 µM
- TGI (UACC-257 melanoma): > 100 µM
- GI50 (MDA-MB-435): 0.976 µM
- TGI (MDA-MB-435): 4.19 µM
- GI50 (SK-MEL-5 melanoma): 3.83 µM
- TGI (SK-MEL-5 melanoma): 16.4 µM
- GI50 (PC-3 prostate): 4.14 µM
- TGI (PC-3 prostate): > 100 µM
- GI50 (MCF7 breast): 0.949 µM
- TGI (MCF7 breast): 21.5 µM
- GI50 (SW-620 colon): 4.05 µM
- TGI (SW-620 colon): > 100 µM
- GI50 (SN12C renal): 3.62 µM
- TGI (SN12C renal): 34.4 µM
- GI50 (NCI-H522 lung): 1.88 µM
- TGI (NCI-H522 lung): 5.97 µM
- GI50 (K-562 leukemia): 2.77 µM
- TGI (K-562 leukemia): > 100 µM
- GI50 (U251 CNS): 3.91 µM
- TGI (U251 CNS): > 100 µM
- GI50 (HCC-2998 colon): 3.28 µM
- TGI (HCC-2998 colon): 16.9 µM
- GI50 (HCT-116 colon): 3.18 µM
- TGI (HCT-116 colon): > 100 µM
- GI50 (786-0 renal): 7.45 µM
- TGI (786-0 renal): > 100 µM
- GI50 (SNB-75 CNS): 1.81 µM
- TGI (SNB-75 CNS): 9.27 µM
- GI50 (SF-539 CNS): 2.08 µM
- TGI (SF-539 CNS): 5.47 µM
- GI50 (HOP-62 NSCLC): 5.42 µM
- TGI (HOP-62 NSCLC): > 100 µM
- GI50 (OVCAR-8 ovarian): 3.55 µM
- TGI (OVCAR-8 ovarian): 30.1 µM
